# Structures can show the parent of a compound that is named as a salt.
# Target: T1, MASP-2 (CCP1-CCP2-SP) (Homo sapiens, UniProt O00187)
# T1 construct: 15 μL of Enzyme MASP-2 (CCP1-CCP2-SP) in Assay Buffer
# Experiment: Enzymatic Assay for MASP-2
# Format: biochemical
# Conditions: fluorogenic substrate based on C2 cleavage site, room temperature, 20 mM HEPES pH 7.4
# Experimental: Enzymatic Assay for MASP-2
# The MASP-2 assay utilizes a fluorogenic substrate, based on the cleavage site for its natural substrate C2. The assay is run at room temperature in an assay buffer containing 20 mM HEPES, pH 7.4, 140 mM NaCl and 0.1% Tween 20. Assay parameters are adjusted such that the assay is linear with respect to time, enzyme, and substrate concentrations. Under these optimized assays conditions, IC50 values are equivalent to Ki values, except in a few cases of “tight binding” inhibitors. Cases of “tight binding” or possible “slow binding” inhibitors are handled by the methods described in Copeland R. A. (2013) Evaluation of Enzyme Inhibitors in Drug Discovery. 2nd Ed., John Wiley and Sons, Inc., Chapters 5-7.
# The MASP-2 assay protocol is carried out as follows. Test compounds are serially diluted in DMSO and then 100 nL of each dilution is transferred to the assay plate(s). 10 μL of Assay Buffer is added, followed by 15 μL of Enzyme MASP-2 (CCP1-CCP2-SP) in Assay Buffer. 15 μL of Substrate in Assay Buffer is then added and mixed to start the reactions. After 20 min at room temperature, 15 μL of a stop solution (0.1 M acetic acid) is added, mixed and the plates are read on a SpectraMax i3x Microplate Reader and exported as Excel files. Each assay plate included a “no inhibitor” (DMSO Only) control, a “no enzyme” control and a reference inhibitor control. % Activity values=100*(average test comp. fluorescence−average “no enzyme” fluorescence)/(average “DMSO only” fluorescence−average “no enzyme” fluorescence). IC50 and Ki values are very reproducible, falling well within ±2-fold.
# T1 sequence (O00187 445-686 limits assumed): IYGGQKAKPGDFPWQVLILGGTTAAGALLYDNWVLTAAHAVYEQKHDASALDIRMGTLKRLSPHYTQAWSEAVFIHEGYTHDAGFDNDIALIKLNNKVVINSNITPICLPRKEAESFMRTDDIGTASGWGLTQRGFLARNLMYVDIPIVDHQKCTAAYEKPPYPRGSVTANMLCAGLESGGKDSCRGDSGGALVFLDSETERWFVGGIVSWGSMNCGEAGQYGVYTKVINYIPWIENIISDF
# T1 sequence (O00187 298-444 partner limits assumed): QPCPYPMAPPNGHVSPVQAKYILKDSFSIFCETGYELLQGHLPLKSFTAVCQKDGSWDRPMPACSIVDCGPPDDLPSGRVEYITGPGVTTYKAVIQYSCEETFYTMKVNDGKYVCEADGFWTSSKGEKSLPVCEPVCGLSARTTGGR
row,Ki,SMILES
1,> 10000 nM,"Cc1nc(N)ccc1CNC(=O)Cn1c(C)ncc(NS(=O)(=O)Cc2ccccc2)c1=O [Compound 1, N-((6-Amino-2-Methylpyridin-3-yl)Methyl)-2-(2-Methyl-6-Oxo-5-((Phenylmethyl)Sulfonamido)Pyrimidin-1(6H)-yl)Acetamide, Trifluoro Acetate]"
2,< 500 nM,"Cc1nc(N)ccc1CNC(=O)Cn1c(C)ncc(NCCc2ccccc2)c1=O [Compound 2, N-((6-Amino-2-Methylpyridin-3-yl)Methyl)-2-(2-Methyl-6-Oxo-5-(Phenethylamino)Pyrimidin-1(6H)-yl)Acetamide, Trifluoroacetate]"
3,< 500 nM,"Cc1ncc(NCCc2ccccc2)c(=O)n1CC(=O)NCc1ccc2nc(N)[nH]c2c1 [Compound 3, N-((2-Amino-1H-benzo[d]imidazol-6-yl)methyl)-2-(2-methyl-6-oxo-5-(phenethylamino)pyrimidin-1(6H)-yl)acetamide trifluoroacetate]"
4,< 500 nM,"Nc1nc2ccc(CNC(=O)Cn3c(-c4ccccc4)ncc(NCCc4ccccc4)c3=O)cc2[nH]1 [Compound 4, N-((2-Amino-1H-Benzo[d]Imidazol-6-yl)Methyl)-2-(6-Oxo-5-(Phenethylamino)-2-Phenylpyrimidin-1(6H)-yl)Acetamide, Trifluoroacetate]"
5,< 500 nM,"CSc1ncc(NCCc2ccccc2)c(=O)n1CC(=O)NCc1ccc2nc(N)[nH]c2c1 [Compound 5, N-((2-Amino-1H-Benzo[d]Imidazol-6-yl)Methyl)-2-(2-(Methylthio)-6-Oxo-5-(Phenethylamino)Pyrimidin-1(6H)-yl)Acetamide]"
6,< 500 nM,"Cc1nc(N)ccc1CNC(=O)Cn1c(-c2ccccc2)ncc(NCCc2ccccc2)c1=O [Compound 6, N-((6-Amino-2-Methylpyridin-3-yl)Methyl)-2-(6-Oxo-5-(Phenethylamino)-2-Phenylpyrimidin-1(6H)-yl)Acetamide]"
7,< 500 nM,"Nc1nc2ccc(CNC(=O)Cn3c(Br)cnc(NCCc4ccccc4)c3=O)cc2[nH]1 [Compound 8, N-((2-Amino-1H-Benzo[d]Imidazol-6-yl)Methyl)-2-(6-Bromo-2-Oxo-3-(Phenethylamino)Pyrazin-1(2H)-yl)Acetamide]"
8,< 500 nM,"Nc1nc2cc(CNC(=O)Cn3c(-c4ccccc4)cnc(NCCc4ccccc4)c3=O)ccc2[nH]1 [Compound 9, N-((2-Amino-1H-Benzo[d]Imidazol-5-yl)Methyl)-2-(2-Oxo-3-(Phenethylamino)-6-Phenylpyrazin-1(2H)-yl)Acetamide]"
9,< 500 nM,"N#Cc1cccc(-c2cnc(NCCc3ccccc3)c(=O)n2CC(=O)NCc2ccc3nc(N)[nH]c3c2)c1 [Compound 14, N-((2-Amino-1H-benzo[d]imidazol-6-yl)methyl)-2-(6-(3-cyanopheny1)-2-oxo-3-(phenethylamino)pyrazin-1(2H)-yl)acetamide]"
10,< 500 nM,NC(=O)c1cccc(-c2cnc(NCCc3ccccc3)c(=O)n2CC(=O)NCc2ccc3nc(N)[nH]c3c2)c1 [Compound 15]
11,< 500 nM,Nc1nc2ccc(CNC(=O)Cn3c(-c4cccc(C(=O)O)c4)cnc(NCCc4ccccc4)c3=O)cc2[nH]1 [Compound 16]
12,< 500 nM,"Cc1nc(N)ccc1CNC(=O)Cn1c(-c2ccc(Cl)cc2)cnc(NCCc2ccccc2)c1=O [Compound 17, N-((6-Amino-2-Methylpyridin-3-yl)Methyl)-2-(6-(4-Chlorophenyl)-2-Oxo-3-(Phenethylamino)Pyrazin-1(2H)-yl) Acetamide, Trifluoroacetate]"
13,< 500 nM,"Cc1nc(N)ccc1CNC(=O)Cn1c(-c2cccnc2)cnc(NCCc2ccccc2)c1=O [Compound 18, N-((6-amino-2-methylpyridin-3-yl)methyl)-2-(2-oxo-3-(phenethylamino)-6-(pyridin-3-yl)pyrazin-1(2H)-yl)acetamide trifluoroacetate]"
14,< 500 nM,"Cc1nc(N)ccc1CNC(=O)Cn1c(Cc2ccccc2)cnc(NCCc2ccccc2)c1=O [Compound 19, N-((6-amino-2-methylpyridin-3-yl)methyl)-2-(6-benzyl-2-oxo-3-(phenethylamino)pyrazin-1(2H)-yl)acetamide trifluoroacetate]"
15,< 500 nM,"O=C(Cn1c(-c2ccccc2)cnc(NCCc2ccccc2)c1=O)NCc1cc2cnccc2[nH]1 [Compound 20, N-((1H-Pyrrolo[3,2-c]pyridin-2-yl)methyl)-2-(2-oxo-3-(phenethylamino)-6-phenylpyrazin-1(2H)-yl)acetamide trifluoroacetate]"
16,< 500 nM,"O=C(Cn1c(-c2ccc(C(F)(F)F)cc2)cnc(NCCc2ccccc2)c1=O)NCc1cc2cnccc2[nH]1 [Compound 21, N-((1H-Pyrrolo[3,2-c]Pyridin-2-yl)Methyl)-2-(2-Oxo-3-(Phenethylamino)-6-(4-(Trifluoromethyl)Phenyl)Pyrazin-1(2H)-yl)Acetamide, Trifluoroacetate]"

row,Ki,SMILES
1,< 500 nM,"Cc1nc(N)ccc1CNC(=O)Cn1c(-c2ccc[nH]2)cnc(NCCc2ccccc2)c1=O [Compound 22, N-((6-Amino-2-methylpyridin-3-yl)methyl)-2-(2-oxo-3-(phenethylamino)-6-(1H-pyrrol-2-yl)pyrazin-1(2H)-yl)acetamide]"
2,< 500 nM,"Cc1nc(N)ccc1CNC(=O)Cn1c(-c2cncnc2)cnc(NCCc2ccccc2)c1=O [Compound 23, N-((6-Amino-2-methylpyridin-3-yl)methyl)-2-(2-oxo-3-(phenethylamino)-6-(pyrimidin-5-yl)pyrazin-1(2H)-yl)acetamide]"
3,< 500 nM,"Cc1nc(N)ccc1CNC(=O)Cn1c(-c2cccc3cnccc23)cnc(NCCc2ccccc2)c1=O [Compound 24, N-((6-Amino-2-methylpyridin-3-yl)methyl)-2-(6-(isoquinolin-5-yl)-2-oxo-3-(phenethylamino)pyrazin-1(2H)-yl)acetamide]"
4,< 500 nM,"Cc1nc(N)ccc1CNC(=O)Cn1c(-c2cnn(C)c2)cnc(NCCc2ccccc2)c1=O [Compound 25, N-((6-Amino-2-methylpyridin-3-yl)methyl)-2-(6-(1-methyl-1H-pyrazol-4-yl)-2-oxo-3-(phenethylamino)pyrazin-1(2H)-yl)acetamide]"
5,500 to 2500 nM,"Cc1nc(N)ccc1CNC(=O)Cn1c(C#Cc2ccccc2)cnc(NCCc2ccccc2)c1=O [Compound 26, N-((6-Amino-2-Methylpyridin-3-yl)Methyl)-2-(2-Oxo-3-(Phenethylamino)-6-(Phenylethynyl)Pyrazin-1(2H)-yl)Acetamide]"
6,< 500 nM,"Cc1nc(N)ccc1CNC(=O)Cn1c(-c2ccc(C#N)cc2)cnc(NCCc2ccccc2)c1=O [Compound 27, N-((6-Amino-2-Methylpyridin-3-yl)Methyl)-2-(6-(4-Cyanophenyl)-2-Oxo-3-(Phenethyl Amino)Pyrazin-1(2H)-yl)Acetamide]"
7,< 500 nM,"COc1ccccc1-c1cnc(NCCc2ccccc2)c(=O)n1CC(=O)NCc1ccc(N)nc1C [Compound 28, N-((6-Amino-2-methylpyridin-3-yl)methyl)-2-(6-(2-methoxyphenyl)-2-oxo-3-(phenethylamino)pyrazin-1(2H)-yl)acetamide hydrochloride]"
8,< 500 nM,Cc1nc(N)ccc1CNC(=O)Cn1c(-c2ccccc2Cl)cnc(NCCc2ccccc2)c1=O [Compound 29]
9,< 500 nM,"Cc1nc(N)ccc1CNC(=O)Cn1c(-c2cccc(C(N)=O)c2)cnc(NCCc2ccccc2)c1=O [Compound 30, 3-(1-(2-(((6-Amino-2-methylpyridin-3-yl)methyl)amino)-2-oxoethyl)-6-oxo-5-(phenethylamino)-1,6-dihydropyrazin-2-yl)benzamide hydrochloride]"
10,< 500 nM,"Cc1nc(N)ccc1CNC(=O)Cn1c(-c2ccc(N)cc2)cnc(NCCc2ccccc2)c1=O [Compound 31, N-((6-Amino-2-Methylpyridin-3-yl)Methyl)-2-(6-(4-Aminophenyl)-2-Oxo-3-(Phenyethylamino)Pyrazin-1-(2H)-yl)Acetamide]"
11,< 500 nM,"Cc1nc(N)ccc1CNC(=O)Cn1c(-c2cccc(CO)c2)cnc(NCCc2ccccc2)c1=O [Compound 32, N-((6-Amino-2-Methylpyridin-3-yl)Methyl)-2-(6-(3-(Hydroxymethyl)Phenyl)-2-Oxo-3-(Phenethyl Amino)Pyrazin-1(2H)-yl)Acetamide]"
12,< 500 nM,Cc1nc(N)ccc1CNC(=O)Cn1c(-c2ccc(CO)cc2)cnc(NCCc2ccccc2)c1=O [Compound 33]
13,< 500 nM,"Cc1nc(N)ccc1CNC(=O)Cn1c(=O)c(NCCc2ccccc2)cn(C)c1=O [Compound 34, N-((6-Amino-2-Methylpyridin-3-yl)Methyl)-2-(3-Methyl-2,6-Dioxo-5-(Phenethylamino)-3,6-Dihydropyrimidin-1(2H)-yl)Acetamide]"
14,2500 to 10000 nM,"Cc1cc(Cl)cc(CNC(=O)Cn2c(=O)c(NCCc3ccccc3)cn(C)c2=O)c1O [Compound 35, trifluoroacetate]"
15,> 10000 nM,"Cc1nc(N)ccc1CNC(=O)Cn1c(=O)c(NS(=O)(=O)Cc2ccccc2)cn(C)c1=O [Compound 36, N-((6-Amino-2-Methylpyridin-3-yl)Methyl)-2-(3-Methyl-2,6-Dioxo-5-((Phenylmethyl)Sulfonamido)-3,6-Dihydropyrimidin-1(2H)-yl)Acetamide, Trifluoroacetate]"

# Reference: US12110288B2, “MASP-2 inhibitors and methods of use” (Omeros Corporation, priority 2019, dated 2024)
